According to patent US20230346769A1, “USE OF SIMPLE ACYCLIC POLYAMINES FOR THE TREATMENT OF DISEASES CAUSED BY PARASITES OF THE GENUS LEISHMANIA” (Universidad De Granada, priority 2020, published 2023):

How the values were obtained:
[1] = system: L. braziliensis promastigote forms; test: In vitro activity against extracellular (promastigote) forms; type: cell-based, Leishmania braziliensis
Excerpt: (§1) Methodology: Cultures of three Leishmania species, representative of the species causing each of the clinical forms of the disease, were used for these studies. Specifically, strains MCAN/ES/2001/UCM-1 O of L.infantum, isolated and characterised in Madrid from an infected dog; MHOM/BR/1975/M2904 of L.braziliensis, isolated in Brazil in a human case, and LCR-L 133 LRC of L.donovani. isolated in Jerusalem, Israel from a case of kala-azar […] (WHO Technical Reports Series 949. Geneva: WHO. March. The cultures of parasites come from an own collection which was prepared from a biobank project (Biobank and Characterisation Unit of Strains and Species of Trypanosomatids, Responsible for Human, Animal and Plant Pathologies, Cgl-2008-03687-E/Bos.), and are available on request.
(§2) The promastigote forms of the three species studied were cultured in vitro in sterility in single-phase MTL culture medium (Medium Trypanosomes Liquid) made from Hank’s Balanced Salts (Sigma-Aldrich, H6136) enriched with 10% (v/v) of Fetal Bovine Serum (SBF-1) inactivated at 56° C./ 30 minutes. The parasite inoculum to initiate the culture was 5 × 10^4 cells/ml in 5 ml medium in 25 cm^2 Falcon® plastic flasks and kept in an oven at 28° C. The cultures were performed routinely, achieving exponential growth of the flagellates until obtaining the cell mass necessary for the subsequent studies. Both promastigote forms and amastigote forms were used to conduct the assays.
(§3) The promastigote forms of the three Leishmania strains, cultured in the manner described above, were harvested in their exponential growth phase by centrifugation at 400 g for 10 min. The number of parasites was counted in a Neubauer Haemocytometer Counting Chamber and were inoculated in a 24-well plate at a concentration of 5 ×10^4 parasites/well.
(§4) The compounds to be assayed were dissolved in DMSO at a concentration of 0.01% (v/v), concentration at which this solvent is not toxic nor has any effect on the growth of parasites. The compounds were added to the culture medium at final concentrations of 100, 50, 25 and 12.5 µM. […] M. et al. Med. Chem. 2011. 54. 970-979].

[2] = system: L. infantum amastigote forms; test: In vitro activity against intracellular (amastigote) forms in macrophages; type: cell-based, Leishmania infantum
Excerpt: as §1
(§5) For the study of the in vitro effect on intracellular forms of Leishmania, the experimental model designed by the group of the present inventors was used [Sánchez-Moreno. M. et al. Med. Chem. 2012, 55, 9900-9913; Sánchez-Moreno. M. et al. J. Antimicrob. Chemother. 2012, 67, 387-397]. The macrophages were detached from the culture flask where they were attached by dry blows. To do this, it was incubated in cold for 5 minutes and after that the flask was hit with the palm of the hand until the cells were detached from the flask. Then, they were passed to a 25 ml capacity steriling conical bottom flask (Deltalab) to centrifuge them at 120 g for 5 minutes, removing the supernatant and were counted in Neubauer’s chamber. Cells were suspended in RPMI medium at a concentration of 1×10^4 cells/well, then cultured in 24-well plates into which a 12 mm round slide had previously been placed into each well. For adherence, the cells were left 24 h at 37° C. in 5% CO2. Subsequently, the cells were infected in vitro by placing Leishmania cells at the rate of 10 parasites/macrophage according to [Sánchez-Moreno. M et al. Med. Chem. 2011, 54, 970-979]. […] The products were allowed to act for 72 hours of incubation.
(§6) After that time, the crystals were removed and fixed with methanol on a slide and allowed to dry, after which DPX microscopy mounting medium (Panreac®) was added to it. Once the preparations had been mounted, they were dyed with Giemsa by diluting Azur-Eosin-Methylene Blue solution according to Giemsa DC (Code 251338) with Sorensen buffer (1:10 dilution). The preparations were covered and allowed to colour for 20 minutes, after which they were washed with distilled water and then allowed to drain and dry vertically. Finally, the amastigote forms were counted with the aim of immersion in a total of 200 cells.

J774.2 macrophages = test: Macrophage toxicity by flow cytometry; type: cell-based; details: J774.2 macrophages, 72 h of culture
Procedure: Macrophage toxicity: this study used the experimental model designed by the group of inventors [I. Ramírez-Macías. et. al. J. Antimicrob. Chemother. 2011, 66(4): 813-819] wherein flow cytometry is used. Briefly, macrophages from line J774.2 (ECACC number 91051511, obtained from a BALB/c female […] tumour in 1968) were deposited in a steriling tube and centrifuged at 120 g for 5 minutes. The supernatant was discarded and the cells were resuspended in MEM + Glutamine medium with 20% SBF (fetal bovine serum). 1×10^4 cells per well were then deposited from a 24-well titration plate and incubated for 24-48 h at 37° C. in a humid atmosphere enriched with 5% CO2 to fix them. […] After 72 h of incubation, the samples were prepared for reading on a flow cytometer. Specifically, 100 µl of propidium iodide solution (100 µg/ml) was added to each well and incubated for 10 min at 28° C. in the dark. Subsequently, 100 µl/well of fluorescein diacetate (FDA) (Sigma Chemical Co) in solution (100 ng/mL) was added and incubation was repeated under the same conditions for 10 minutes. Cells were recovered by centrifugation at 400 g for 10 minutes and washing the precipitate with PBS. Finally, the results were analysed in a FACS Vantage flow cytometer (Becton Dickinson) taking into account that the cells with the plasma membrane intact emit green colour as the esterases act on the FDA, while the cells that have lost the integrity of the membrane and are not viable, emit in the range close to 580 nm by penetrating the propidium iodide by passive diffusion and specifically binding to the nucleic acids thereof. Thus, to calculate the percentage of viability, the number of dead cells compared to controls was taken into account.

[3] = system: L. infantum promastigote forms; test: In vitro activity against extracellular (promastigote) forms; type: cell-based, Leishmania infantum
Excerpt: as §1, §2, §3, §4

[4] = system: L. donovani promastigote forms; test: as above; type: cell-based, Leishmania donovani
Excerpt: as §1, §2, §3, §4

[5] = system: L. donovani amastigote forms; test: In vitro activity against intracellular (amastigote) forms in macrophages; type: cell-based, Leishmania donovani
Excerpt: as §1, §5, §6

[6] = system: L. braziliensis amastigote forms; test: as above; type: cell-based, Leishmania braziliensis
Excerpt: as §1, §5, §6

[7] = IC50 of macrophages / IC50 of parasite form

In the case of “meglumine antimoniate [Glucantime, reference compound]”, the IC50 ([1]; 72 h) is reported as 18 ± 3.1 µM, the “Selectivity Index (SI) L. brazilensis Promastigote forms” value [1, 7] is reported as 0.6 and the IC50 ([2]; 72 h) is reported as 24.2 ± 2.6 µM. For the same substance, the “Selectivity Index (SI) L. infantum Amastigote forms” value [2, 7] was 0.6, the IC50 (J774.2 macrophages) was 15.2 ± 1 µM and the IC50 ([3]; 72 h) was 18 ± 3.1 µM. For the same substance, the “Selectivity Index (SI) L. infantum Promastigote forms” value [3, 7] was 0.8, the IC50 ([4]; 72 h) was 18 ± 3.1 µM and the “Selectivity Index (SI) L. donvovani Promastigote forms” value [4, 7] was 0.7. For the same substance, the IC50 ([5]; 72 h) was 24.2 ± 2.6 µM, the “Selectivity Index (SI) L. donvovani Amastigote forms” value [5, 7] was 0.6 and the IC50 ([6]; 72 h) was 24.2 ± 2.6 µM. For the same substance, the “Selectivity Index (SI) L. brazilensis Amastigote forms” value [6, 7] was 0.6.
